{"source": "BindingDB's records for doi:10.1016/s0960-894x(02)00300-1", "about": "(University of Illinois At Chicago, 2002)", "note": "pKi: −log10 of the molar value.", "data": [{"target": "T1, Dimer of Gag-Pol polyprotein [501-599,Q508K,L534I,L564I,C568A,C596A] (Human immunodeficiency virus 1, UniProt P03367, C568A/C596A/L534I/L564I/Q508K)", "T1 construct": "501-599", "assay": "Protease Inhibition Assay", "conditions": "pH 6.4; 25 °C", "method": "The Ki values were determined using fluorogenic substrate, 2-(aminobenzoyl)-Thr-Ile-Nle-Phe(p-NO2)-Gln-ArgNH2. A standard curve relating changes in fluorescent intensity to changes in concentration of product was used to convert fluorescent changes into molar velocities. The amount of cleavage was determined by HPLC.", "values": [{"molecule": "O=C(N[C@@H](Cc1ccccc1)[C@H](O)CN1CCCCCCCCCCC(c2ccccc2)OC1=O)O[C@H]1CO[C@H]2OCC[C@H]21", "note": "(stereo partly drawn) [(3R,3aS,6aR)-hexahydrofuro[2,3-b]furan-3-yl N-[(2S,3R)-3-hydroxy-4-(2-oxo-14-phenyl-1-oxa-3-azacyclotetradecan-3-yl)-1-phenylbutan-2-yl]carbamate]", "pKi": 6.72}, {"molecule": "CC1CCCCCCCCCCCOC(=O)N1C[C@@H](O)[C@H](Cc1ccccc1)NC(=O)O[C@H]1CO[C@H]2OCC[C@H]21", "note": "(stereo partly drawn) [(3R,3aS,6aR)-hexahydrofuro[2,3-b]furan-3-yl N-[(2S,3R)-3-hydroxy-4-(4-methyl-2-oxo-1-oxa-3-azacyclopentadecan-3-yl)-1-phenylbutan-2-yl]carbamate]", "pKi": 7.52}, {"molecule": "C=CCCCCCCCCN(C[C@@H](O)[C@H](Cc1ccccc1)NC(=O)O[C@H]1CO[C@H]2OCC[C@H]21)C(=O)OC(CC=C)c1ccccc1", "note": "(stereo partly drawn) [(3R,3aS,6aR)-hexahydrofuro[2,3-b]furan-3-yl N-[(2S,3R)-4-[dec-9-en-1-yl({[(1-phenylbut-3-en-1-yl)oxy]carbonyl})amino]-3-hydroxy-1-phenylbutan-2-yl]carbamate]", "pKi": "< 6.00"}, {"molecule": "CC(C)(C)NC(=O)[C@@H]1C[C@@H]2CCCC[C@@H]2CN1C[C@@H](O)[C@H](Cc1ccccc1)NC(=O)O[C@H]1CO[C@H]2OCC[C@H]21", "note": "[(3R,3aS,6aR)-hexahydrofuro[2,3-b]furan-3-yl N-[(2S,3R)-4-[(3S,4aS,8aS)-3-(tert-butylcarbamoyl)-decahydroisoquinolin-2-yl]-3-hydroxy-1-phenylbutan-2-yl]carbamate]", "pKi": 8.70}, {"molecule": "C=CCCCCCCCC(OC(=O)N(CC=C)C[C@@H](O)[C@H](Cc1ccccc1)NC(=O)O[C@H]1CO[C@H]2OCC[C@H]21)c1ccccc1", "note": "(stereo partly drawn) [(3R,3aS,6aR)-hexahydrofuro[2,3-b]furan-3-yl N-[(2S,3R)-3-hydroxy-1-phenyl-4-({[(1-phenyldec-9-en-1-yl)oxy]carbonyl}(prop-2-en-1-yl)amino)butan-2-yl]carbamate]", "pKi": "< 6.00"}, {"molecule": "O=C(N[C@@H](Cc1ccccc1)[C@H](O)CN1CCCCCCCCC=CCCOC1=O)O[C@H]1CO[C@H]2OCC[C@H]21", "note": "[(3R,3aS,6aR)-hexahydrofuro[2,3-b]furan-3-yl N-[(2S,3R)-3-hydroxy-4-(2-oxo-1-oxa-3-azacyclopentadec-12-en-3-yl)-1-phenylbutan-2-yl]carbamate]", "pKi": 7.06}, {"molecule": "O=C(N[C@@H](Cc1ccccc1)[C@H](O)CN1C/C=C\\CCCCCCCCOC1=O)O[C@H]1CO[C@H]2OCC[C@H]21", "note": "[(3R,3aS,6aR)-hexahydrofuro[2,3-b]furan-3-yl N-[(2S,3R)-3-hydroxy-4-[(5Z)-2-oxo-1-oxa-3-azacyclotetradec-5-en-3-yl]-1-phenylbutan-2-yl]carbamate]", "pKi": 6.90}, {"molecule": "O=C(N[C@@H](Cc1ccccc1)[C@H](O)CN1C/C=C\\CCCCCCCC(c2ccccc2)OC1=O)O[C@H]1CO[C@H]2OCC[C@H]21", "note": "(stereo partly drawn) [(3R,3aS,6aR)-hexahydrofuro[2,3-b]furan-3-yl N-[(2S,3R)-3-hydroxy-4-[(5Z)-2-oxo-14-phenyl-1-oxa-3-azacyclotetradec-5-en-3-yl]-1-phenylbutan-2-yl]carbamate]", "pKi": 6.64}, {"molecule": "C=CCCCCCCCCN(C[C@@H](O)[C@H](Cc1ccccc1)NC(=O)O[C@H]1CO[C@H]2OCC[C@H]21)C(=O)OCCC=C", "note": "[but-3-en-1-yl N-[(2R,3S)-3-({[(3R,3aS,6aR)-hexahydrofuro[2,3-b]furan-3-yloxy]carbonyl}amino)-2-hydroxy-4-phenylbutyl]-N-(dec-9-en-1-yl)carbamate]", "pKi": "< 6.00"}, {"molecule": "CC1CC=CCCCCCCCOC(=O)N(C[C@@H](O)[C@H](Cc2ccccc2)NC(=O)O[C@H]2CO[C@H]3OCC[C@H]32)C1", "note": "(stereo partly drawn) [(3R,3aS,6aR)-hexahydrofuro[2,3-b]furan-3-yl N-[(2S,3R)-3-hydroxy-4-(5-methyl-2-oxo-1-oxa-3-azacyclopentadec-7-en-3-yl)-1-phenylbutan-2-yl]carbamate]", "pKi": 7.96}, {"molecule": "C=CCCCCCCCOC(=O)N(CC(C)CC=C)C[C@@H](O)[C@H](Cc1ccccc1)NC(=O)O[C@H]1CO[C@H]2OCC[C@H]21", "note": "(stereo partly drawn) [non-8-en-1-yl N-[(2R,3S)-3-({[(3R,3aS,6aR)-hexahydrofuro[2,3-b]furan-3-yloxy]carbonyl}amino)-2-hydroxy-4-phenylbutyl]-N-(2-methylpent-4-en-1-yl)carbamate]", "pKi": "< 6.00"}, {"molecule": "C=CCCCCCCCCOC(=O)N(C[C@@H](O)[C@H](Cc1ccccc1)NC(=O)O[C@H]1CO[C@H]2OCC[C@H]21)C(C)CC=C", "note": "(stereo partly drawn) [dec-9-en-1-yl N-[(2R,3S)-3-({[(3R,3aS,6aR)-hexahydrofuro[2,3-b]furan-3-yloxy]carbonyl}amino)-2-hydroxy-4-phenylbutyl]-N-(pent-4-en-2-yl)carbamate]", "pKi": "< 6.00"}, {"molecule": "C=CCCCCCCCCOC(=O)N(CC=C)C[C@@H](O)[C@H](Cc1ccccc1)NC(=O)O[C@H]1CO[C@H]2OCC[C@H]21", "note": "[dec-9-en-1-yl N-[(2R,3S)-3-({[(3R,3aS,6aR)-hexahydrofuro[2,3-b]furan-3-yloxy]carbonyl}amino)-2-hydroxy-4-phenylbutyl]-N-(prop-2-en-1-yl)carbamate]", "pKi": "< 6.00"}, {"molecule": "O=C(N[C@@H](Cc1ccccc1)[C@H](O)CN1CCCCCCCCCCCCC(c2ccccc2)OC1=O)O[C@H]1CO[C@H]2OCC[C@H]21", "note": "(stereo partly drawn) [(3R,3aS,6aR)-hexahydrofuro[2,3-b]furan-3-yl N-[(2S,3R)-3-hydroxy-4-(2-oxo-16-phenyl-1-oxa-3-azacyclohexadecan-3-yl)-1-phenylbutan-2-yl]carbamate]", "pKi": 6.57}, {"molecule": "O=C(N[C@@H](Cc1ccccc1)[C@H](O)CN1CCCCCCCCC=CCC(c2ccccc2)OC1=O)O[C@H]1CO[C@H]2OCC[C@H]21", "note": "(stereo partly drawn) [(3R,3aS,6aR)-hexahydrofuro[2,3-b]furan-3-yl N-[(2S,3R)-3-hydroxy-4-(2-oxo-15-phenyl-1-oxa-3-azacyclopentadec-12-en-3-yl)-1-phenylbutan-2-yl]carbamate]", "pKi": 6.78}, {"molecule": "O=C(N[C@@H](Cc1ccccc1)[C@H](O)CN1CCCCC=CCCCCCCC(c2ccccc2)OC1=O)O[C@H]1CO[C@H]2OCC[C@H]21", "note": "(stereo partly drawn) [(3R,3aS,6aR)-hexahydrofuro[2,3-b]furan-3-yl N-[(2S,3R)-3-hydroxy-4-(2-oxo-16-phenyl-1-oxa-3-azacyclohexadec-8-en-3-yl)-1-phenylbutan-2-yl]carbamate]", "pKi": 6.79}, {"molecule": "CC1CCCCCCCCCCOC(=O)N(C[C@@H](O)[C@H](Cc2ccccc2)NC(=O)O[C@H]2CO[C@H]3OCC[C@H]32)C1", "note": "(stereo partly drawn) [(3R,3aS,6aR)-hexahydrofuro[2,3-b]furan-3-yl N-[(2S,3R)-3-hydroxy-4-(5-methyl-2-oxo-1-oxa-3-azacyclopentadecan-3-yl)-1-phenylbutan-2-yl]carbamate]", "pKi": 8.21}, {"molecule": "O=C(N[C@@H](Cc1ccccc1)[C@H](O)CN1CCCCCCCCCCCOC1=O)O[C@H]1CO[C@H]2OCC[C@H]21", "note": "[(3R,3aS,6aR)-hexahydrofuro[2,3-b]furan-3-yl N-[(2S,3R)-3-hydroxy-4-(2-oxo-1-oxa-3-azacyclotetradecan-3-yl)-1-phenylbutan-2-yl]carbamate]", "pKi": 7.10}, {"molecule": "O=C(N[C@@H](Cc1ccccc1)[C@H](O)CN1CCCCCCCCCCCCOC1=O)O[C@H]1CO[C@H]2OCC[C@H]21", "note": "[(3R,3aS,6aR)-hexahydrofuro[2,3-b]furan-3-yl N-[(2S,3R)-3-hydroxy-4-(2-oxo-1-oxa-3-azacyclopentadecan-3-yl)-1-phenylbutan-2-yl]carbamate]", "pKi": 7.85}, {"molecule": "O=C(N[C@@H](Cc1ccccc1)[C@H](O)CN1CCCCCCCCCCCC(c2ccccc2)OC1=O)O[C@H]1CO[C@H]2OCC[C@H]21", "note": "(stereo partly drawn) [(3R,3aS,6aR)-hexahydrofuro[2,3-b]furan-3-yl N-[(2S,3R)-3-hydroxy-4-(2-oxo-15-phenyl-1-oxa-3-azacyclopentadecan-3-yl)-1-phenylbutan-2-yl]carbamate]", "pKi": 6.45}, {"molecule": "CC1CC=CCCCCCCCCOC(=O)N1C[C@@H](O)[C@H](Cc1ccccc1)NC(=O)O[C@H]1CO[C@H]2OCC[C@H]21", "note": "(stereo partly drawn) [(3R,3aS,6aR)-hexahydrofuro[2,3-b]furan-3-yl N-[(2S,3R)-3-hydroxy-4-(4-methyl-2-oxo-1-oxa-3-azacyclopentadec-6-en-3-yl)-1-phenylbutan-2-yl]carbamate]", "pKi": 7.28}, {"molecule": "C=CCCCCCCC(OC(=O)N(CCCCC=C)C[C@@H](O)[C@H](Cc1ccccc1)NC(=O)O[C@H]1CO[C@H]2OCC[C@H]21)c1ccccc1", "note": "(stereo partly drawn) [(3R,3aS,6aR)-hexahydrofuro[2,3-b]furan-3-yl N-[(2S,3R)-4-[hex-5-en-1-yl({[(1-phenylnon-8-en-1-yl)oxy]carbonyl})amino]-3-hydroxy-1-phenylbutan-2-yl]carbamate]", "pKi": 6.35}]}]}
